Test results from paper PMC13439108, “An antibody–drug conjugate active against antibiotic-resistant Neisseria gonorrhoeae” (Proceedings of the National Academy of Sciences of the …, 2026).
Values after ≈ are worked out from the molar mass of the structure shown. Where a SMILES comes first, the peptide text is derived from it. [ ]: non-standard residue; d: D form. The star is where a group is joined. d(aIle) = CC[C@H](C)[C@@H](N)C(=O)O; dDab = NCC[C@@H](N)C(=O)O; Octanoyl = CCCCCCCC(=O)*; Dab = NCC[C@H](N)C(=O)O; AEEA = NCCOCCOCC(=O)O

Columns and labels:
HK-2 cells = experiment: MTT cell viability; format: cell-based, human; conditions: n = 3
Description: HK-2 cells (CRL-2190™, Americab Type Culutre Collection (ATCC)), a proximal renal tubule cell(7), and End1/E6E7 (CRL-2615™, ATCC) upper cervical epithelial cells(8) were cultured in Keratinocyte Serum Free Medium (Invitrogen, Life Technologies Ltd.) with human recombinant EGF (5 ng ml-1) and bovine pituitary extract (0.05 mg ml−1) at 37°C in 5% CO2. […]
Cell viability was assessed by 3-(4,5-dimethylthiazol-2-yl)-2,5-diphenyl-2H-tetrazolium bromide (MTT) assay(9); 200 µl fresh cell media and 250 µg of MTT was added to cells. Plates were Incubated at 37 °C, 5% CO2 for 3 hr then 200 µl of DMSO was added to wells with 25 µl glycine buffer (0.1 M glycine, 0.1 M NaCl pH 10.5) and shaken at 1000 r.p.m. for 10 min. Absorbance was read at OD570 nm. Cell viability was calculated as (sample absorbance – cell free blank/media control absorbance) x100.

N. gonorrhoeae FA1090 [1] = experiment: microbe, parasite or virus in culture; conditions: FA1090, FB
Description: 37°C, in 5% CO2 then 10 μl aliquots plated onto GCB agar. The MIC was defined as the lowest concentration of an antimicrobial that prevented bacterial growth.
Determination of N. gonorrhoeae resistance to Oct-TriA1
Single colonies of N. gonorrhoeae FA1090 were inoculated into 2 mL of FB media supplemented with 1% Vitox (Oxoid) and grown overnight. After 24 hours, 240 µl of a 1/ 5,000 dilution of FA1090 in 2x FB was added to a 48-well plate containing 2-fold dilutions of either Oct-TriA1-c (final concentration, 12.5 µg/ml to 0.2 µg/ml) or ciprofloxacin (final concentration, 16.4 to 0.001 µg/ml) in a total volume of 480
µl. Plates were incubated at 37 °C, 5% CO2 with shaking (180 rpm). After 24 hours, ODA600 of each well […]
to fresh media containing all concentrations of antimicrobials for a total of 35 days. […]

N. gonorrhoeae WHO G = conditions: microdilution in FB, ~5 × 10^4 CFU, 24 hr, 37°C, 5% CO2
Description: (§1) columns (ThermoFisher scientific). Activated mAb was added to 0.9 mg of Oct-TriA1 analogues (synthesised by ISCA Biochemicals, UK) and incubated at room temperature for 60 min. ADCs were dialysed using slide-A-Lyzer cassette (20K MWCO, ThermoFisher scientific) into PBS overnight at 4 °C […]
(§2) MALDI-TOF MS analysis for determination of intact mass mAbs or ADCs with a concentration of 1 mg/mL were acidified with 1% trifluoroacetic acid and mixed with Super DHB matrix, 1 μl was spotted onto an MTP Anchorchip 600/384. For every mAb, three sample spots were prepared from the same solution using three protocols advised by the manufacturer. MALDI-TOF measurements were performed on a Microflex LRF mass spectrometer, equipped with a 60Hz nitrogen laser at 337nm. Number of peptides conjugated was calculated using the MALDI-TOF molecular weights (MW) [MW = M+] of each ADC, the unconjugated antibody (mAb), and the molecular weights of Oct-TriA1 analogues using the following equation.
(§3) Number of peptides = MW ADC − MW mAb […]
(§4) Determination of Oct-TriA1 Minimum Inhibitory Concentration (MIC)
(§5) N. gonorrhoeae was resuspended in PBS to an ODA600 1.0, and ̴5 × 10^4 CFU added to wells of a microdilution plate containing dilutions of antimicrobials in FB. Plates were incubated for 24 hr at […]
(§6) 37°C, in 5% CO2 then 10 μl aliquots plated onto GCB agar. The MIC was defined as the lowest concentration of an antimicrobial that prevented bacterial growth. […]
(§7) Peptide concentration in ADC preparations
(§8) Peptide concentrations for ADCs were calculated from the antibody concentration, the drug-to-antibody ratio (DAR), and the peptide molecular weight using the following formula:
(§9) Conc. peptide (µg/mL) = Conc. ADC (µg/mL) × DAR x MWpeptide (Da) […]
(§10) Where Conc. ADC is the ADC/ mAb concentration, MWADC is the mAb molecular weight (150 kDa), MWpeptide is the peptide molecular weight and DAR is the average number of peptides per conjugate.
(§11) This formula was used to convert ADC concentrations to peptide concentrations for all assays. […]

N. gonorrhoeae WHO N = conditions: microdilution in FB, ~5 × 10^4 CFU, 24 hr, 37°C, 5% CO2
Description: as §1, §2, §3, §4, §5, §6, §7, §8, §9, §10, §11

N. gonorrhoeae WHO F = conditions: microdilution in FB, ~5 × 10^4 CFU, 24 hr, 37°C, 5% CO2, lowest concentration preventing growth
Description: as §1, §2, §3, §4, §5, §6, §7, §8, §9, §10, §11

N. gonorrhoeae FA1090 [2] = conditions: microdilution in FB, ~5 × 10^4 CFU, 24 hr, 37°C, 5% CO2
Description: as §1, §2, §3, §4, §5, §6, §7, §8, §9, §10, §11

[3] = system: N. gonorrhoeae FA1090ΔIgAP; conditions: microdilution in FB, ~5 × 10^4 CFU, 24 hr, 37°C, 5% CO2
Description: as §1, §2, §3, §4, §5, §6, §7, §8, §9, §10, §11

N. gonorrhoeae MS11ΔmtrE = conditions: microdilution in FB, ~5 × 10^4 CFU, 24 hr, 37°C, 5% CO2
Description: as §1, §2, §3, §4, §5, §6, §7, §8, §9, §10, §11

N. gonorrhoeae WHO P = conditions: microdilution in FB, ~5 × 10^4 CFU, 24 hr, 37°C, 5% CO2
Description: as §1, §2, §3, §4, §5, §6, §7, §8, §9, §10, §11

N. gonorrhoeae WHO O = conditions: microdilution in FB, ~5 × 10^4 CFU, 24 hr, 37°C, 5% CO2
Description: as §1, §2, §3, §4, §5, §6, §7, §8, §9, §10, §11

[4] = system: N. gonorrhoeae FA1090ΔmtrE; conditions: microdilution in FB, ~5 × 10^4 CFU, 24 hr, 37°C, 5% CO2
Description: as §1, §2, §3, §4, §5, §6, §7, §8, §9, §10, §11

N. gonorrhoeae MS11 = conditions: microdilution in FB, ~5 × 10^4 CFU, 24 hr, 37°C, 5% CO2
Description: as §1, §2, §3, §4, §5, §6, §7, §8, §9, §10, §11

N. gonorrhoeae WHO K = conditions: microdilution in FB, ~5 × 10^4 CFU, 24 hr, 37°C, 5% CO2
Description: as §1, §2, §3, §4, §5, §6, §7, §8, §9, §10, §11

N. gonorrhoeae MS11ΔIgAP = conditions: microdilution in FB, ~5 × 10^4 CFU, 24 hr, 37°C, 5% CO2
Description: as §1, §2, §3, §4, §5, §6, §7, §8, §9, §10, §11

N. gonorrhoeae WHO L = conditions: microdilution in FB, ~5 × 10^4 CFU, 24 hr, 37°C, 5% CO2
Description: as §1, §2, §3, §4, §5, §6, §7, §8, §9, §10, §11

N. gonorrhoeae WHO M = conditions: microdilution in FB, ~5 × 10^4 CFU, 24 hr, 37°C, 5% CO2
Description: as §1, §2, §3, §4, §5, §6, §7, §8, §9, §10, §11

[5] = system: N. gonorrhoeae G97687 (MDR isolate); conditions: G97687, MDR isolate resistant to ESCs and azithromycin; microdilution in FB, 24 hr, 37°C, 5% CO2
Description: as §4, §5, §6, §7, §8, §9, §10, §11

## CCCCCCCC(=O)N[C@@H](C(=O)N[C@H](CCN)C(=O)NCC(=O)N[C@H](CO)C(=O)N[C@H](Cc1c[nH]c2ccccc12)C(=O)N[C@@H](CO)C(=O)N[C@@H](CCN)C(=O)N[C@H](CCN)C(=O)N[C@@H](Cc1ccccc1)C(=O)N[C@@H](CCC(=O)O)C(=O)N[C@H](C(=O)N[C@@H](C(=O)N[C@@H](C)C(=O)NCCOCCOCC(=O)N[C@@H](CC(C)C)C(=O)N1CCC[C@H]1C(=O)N[C@@H](CCCNC(=N)N)C(=O)N1CCC[C@H]1C(=O)N1CCC[C@H]1C(=O)O)[C@@H](C)CC)C(C)C)C(C)C [Oct-TriA1-c] (Octanoyl-[dV][dDab]G[dS][dW]S[Dab][dDab]FEV[d(aIle)]A[AEEA]LPRPP-OH)
HK-2 cells; MTT reduction OD570, 4 h
  MTT (EC50) 4 h: 101.98 µg/mL
HK-2 cells; MTT reduction OD570, 24 h
  MTT (EC50) 24 h: 78.78 µg/mL
HK-2 cells; MTT reduction OD570, 48 h
  MTT (EC50) 48 h: 61.09 µg/mL
N. gonorrhoeae FA1090 [1]; 24 h, MIC = less than 50% growth (OD600) vs no antimicrobial
  MIC at start of resistance evolution: 1.56 µg/mL
N. gonorrhoeae FA1090 [1]; serial passage 35 d, MIC = less than 50% growth (OD600)
  MIC after 35 d of resistance evolution: 12.5 µg/mL
N. gonorrhoeae WHO G
  MIC: 3.13 µg/mL (≈ 1.41 µM)
N. gonorrhoeae WHO N
  MIC: 3.13 µg/mL (≈ 1.41 µM)
N. gonorrhoeae WHO F
  MIC: 1.56 µg/mL (≈ 0.701 µM)
N. gonorrhoeae FA1090 [2]
  MIC: 0.78 µg/mL (≈ 0.35 µM)
[3]
  MIC: 0.78 µg/mL (≈ 0.35 µM)
N. gonorrhoeae MS11ΔmtrE
  MIC: 1.56 µg/mL (≈ 0.701 µM)
N. gonorrhoeae WHO P
  MIC: 3.13 µg/mL (≈ 1.41 µM)
N. gonorrhoeae WHO O
  MIC: 3.13 µg/mL (≈ 1.41 µM)
[4]
  MIC: 0.78 µg/mL (≈ 0.35 µM)
N. gonorrhoeae MS11
  MIC: 3.13 µg/mL (≈ 1.41 µM)
N. gonorrhoeae WHO K
  MIC: 3.13 µg/mL (≈ 1.41 µM)
N. gonorrhoeae MS11ΔIgAP
  MIC: 6.25 µg/mL (≈ 2.81 µM)
N. gonorrhoeae WHO L
  MIC: 1.56 µg/mL (≈ 0.701 µM)
N. gonorrhoeae WHO M
  MIC: 1.56 µg/mL (≈ 0.701 µM)
[5]
  MIC: 1.56 µg/mL (≈ 0.701 µM)
